Laboratory results published in BigSolDB 2.1.

NC[C@H]1O[C@H](O[C@H]2[C@H](O)[C@@H](O[C@H]3O[C@H](CO)[C@@H](O)[C@H](N)[C@H]3O)[C@H](N)C[C@@H]2N)[C@H](N)C[C@@H]1O showed a solubility (mole fraction) (in DMF, 293.15 K) of 0.000144, a solubility (mole fraction) (in DMF, 298.15 K) of 0.000181 and a solubility (mole fraction) (in DMF, 303.15 K) of 0.000249. For the same molecule, the solubility (mole fraction) (in DMF, 308.15 K) was 0.000394, the solubility (mole fraction) (in DMF, 313.15 K) was 0.000663 and the solubility (mole fraction) (in DMF, 318.15 K) was 0.000942. For the same molecule, the solubility (mole fraction) (in DMSO, 294.15 K) was 0.0124, the solubility (mole fraction) (in DMSO, 298.15 K) was 0.014 and the solubility (mole fraction) (in DMSO, 303.15 K) was 0.018. The solubility (mole fraction) (in DMSO, 308.15 K) was 0.0236, the solubility (mole fraction) (in DMSO, 313.15 K) was 0.0282 and the solubility (mole fraction) (in DMSO, 318.15 K) was 0.0351. The solubility (mole fraction) (in ethanol, 283.15 K) was 0.000436, the solubility (mole fraction) (in ethanol, 288.15 K) was 0.000556 and the solubility (mole fraction) (in ethanol, 293.15 K) was 0.000708. The solubility (mole fraction) (in ethanol, 298.15 K) was 0.00114, the solubility (mole fraction) (in ethanol, 303.15 K) was 0.00191 and the solubility (mole fraction) (in ethanol, 308.15 K) was 0.00243. It also gave a solubility (mole fraction) (in methanol, 288.15 K) of 0.000129, a solubility (mole fraction) (in methanol, 293.15 K) of 0.000133 and a solubility (mole fraction) (in methanol, 298.15 K) of 0.000189. The solubility (mole fraction) (in methanol, 303.15 K) was 0.000284, the solubility (mole fraction) (in methanol, 308.15 K) was 0.000433 and the solubility (mole fraction) (in methanol, 313.15 K) was 0.000635.
